The test system of data set [1] is SARS-CoV-2 (hCoV-19/USA-WA1/2020) in Vero CCL-81 cells. The data set can be described thus: microbe, parasite or virus in culture. In kind it is cell-based. As to conditions: for EC50: read-out: Vero CCL-81 Cells EC50; for EC90: read-out: Vero CCL-81 Cells EC90.
The conditions of data set [2]: 10 mg/kg (in cats); cited from earlier work.
For data set [3] the following is noted: 20 mg/kg, once (dog or cat); Cmax × Fun.
A short description of a further data set: in vitro. The note with it: African green monkey.
The mark [4] stands for this setting: Severe acute respiratory syndrome coronavirus 2, 48 h.

Read-outs that look alike come from different tables or passages of the source.

The EC50 is the concentration that produces a half-maximal response. One may read the EC90 as the point of the concentration-response curve where the effect stands at 90%. What is called Cmax is the peak of the concentration-time curve.

Turning to `CC(C)C[C@H](NC(=O)OCc1ccccc1)C(=O)N[C@@H](CC1CCNC1=O)C(O)S(=O)(=O)O` (some centres unmarked) [GC376], in data set [1], the EC50 turned out to be 0.2 µM and the EC90 turned out to be 0.6 µM. In addition, in the data set with Vero CCL-81 cells, the CC50 was > 100 µM. For the same compound, the Cmax in data set [2] is 1.7 µM.
Take `Cc1cc(C2=NO[C@@](c3cc(Cl)c(Cl)c(Cl)c3)(C(F)(F)F)C2)sc1C(=O)NCC(=O)NCC(F)(F)F` [Lotilaner]: in data set [1] (setting [4]), the EC50 stood at 1.9 µM and the concentration for an effect of 90% (EC90) turned out to be 4.9 µM. Further, the “Cmax (μM) {unbound}” value in data set [3] was 0.007 µM. This compound yielded a CC50 in the data set “in vitro” of 44.3 µM.

These data come from paper PMC11053489 (Viruses, 2024).
